Results on two molecules are retold here after patent US20230391764A1, “BENZOTHIAZOLYL BICYCLO[1.1.1]PENTANE DERIVATIVES FOR THE TREATMENT AND PROPHYLAXIS OF HEPATITIS B VIRUS INFECTION” (Hoffmann-La Roche Inc., priority 2021, published 2023).

Type in all cases: cell-based
Data set [1] has as its system HBeAg. As to the kind of experiment: PHH HBV natural infection assay, HBeAg (alphalisa). To be noted: Hepatitis B virus, 72 h, read-out: HBeAg IC50. As to the method: (§1) Detailed procedures regarding primary human hepatocyte (PHH) HBV natural infection assay are described as below. One tube of frozen PHH (10 million cells) is thawed in 37° C. water bath and then transferred to 20 mL of PHH thawing medium (Sigma, InVitroGRO HT Medium, Cat. S03319) with gently mixing. The cells were then centrifuged at […] for 5 min, the supernatant was discarded and the tube was refilled with 25 mL of PHH plating medium (Sigma, InVitroGRO CP Medium, Cat. S03317). The tube was shaken very gently to re-suspend all cells, and then 50 μl of cells were transferred to each well 384-well collagen I coated plate with appropriate liquid handling equipment, e.g. Integra VIAFLO384 or Agilent Bravo. The cells were then cultured for 24 hours in a cell incubator. For HBV infection, after PHH attachment on the culture plate, the plating medium was removed and replenished with PHH culture medium containing HBV virus. The PHH culture medium was prepared with Dulbecco's Modified Eagle Medium (DMEM)/F12 (1:1 in volume ratio) containing 10% fetal bovine serum (Gibco, Cat.10099141), 5 ng/mL human epidermal growth factor (Gibco, Cat.PHG0311L), 20 ng/mL dexamethasone (Sigma, Cat.D4902-100 mg), 250 ng/mL human recombinant insulin (Gibco, Cat.41400045) and 100 U/mL penicillin. HBV virus at 200 genome equivalent (GE) per cell with 4% PEG8000 (Sigma, Cat.P1458) containing culture medium were added to the PHH culture medium for infection. The cells were then cultured for 24 hours in cell incubator. Then the cell culture supernatant was removed. The HBV-infected PHH were cultured with sandwich culture method with PHH culture medium containing 1% DMSO and 0.25 mg/mL matrix gel for 72 hours. The supernatant was then refreshed with PHH culture medium containing different concentrations of testing compounds for two times with 72-hour interval. At the end of treatment, the supernatant was collected for viral markers measurements, including HBsAg, HBeAg, HBV DNA and cytotoxicity. HBsAg and HBeAg were detected using alphalisa method using their specific antibodies. For HBV DNA detection, HBV DNA Quantitative Fluorescence Diagnostic Kit (Sansure Biotech Inc.) was used following the manufacture's protocol. Cytotoxicity was determined using Cell Counting Kit-8 (CCK8, Dojindo Molecular Technologies, Inc.).
(§2) The compounds of the present invention were tested for their capacity to inhibit HBsAg and HBeAg as described herein.

Data set [2] concerns HBsAg. As to the kind of experiment: PHH HBV natural infection assay, HBsAg (alphalisa). To be noted: Hepatitis B virus, 72 h, read-out: HBsAg IC50. As for the experimental part:
as §1, §2

Data set [3] is described as follows: PHH natural infection assay, cytotoxicity (Cell Counting Kit-8). The settings on record: human; HBV-infected PHH, CCK8. As for the experimental part: as §1

In the case of `CS(=O)(=O)C1(c2noc(C(=O)NC34CC(c5nc6ccc(Cl)cc6s5)(C3)C4)n2)CC1` [Example 76, N-[3-(6-chloro-1,3-benzothiazol-2-yl)-1-bicyclo[1.1.1]pentanyl]-3-(1-methylsulfonylcyclopropyl)-1,2,4-oxadiazole-5-carboxamide], the IC50 in data set [1] turned out to be 0.4 µM; in data set [2] it was 0.7 µM. Also, in data set [3], half-maximal cytotoxicity (CC50 at 144 h) was put at 4.27 µM.
For `CS(=O)(=O)C1(c2nc(C(=O)NC34CC(c5nc6ccc(Br)cc6s5)(C3)C4)no2)CC1` [Example 77, N-[3-(6-bromo-1,3-benzothiazol-2-yl)-1-bicyclo[1.1.1]pentanyl]-5-(1-methylsulfonylcyclopropyl)-1,2,4-oxadiazole-3-carboxamide], in that order: 0.62 µM, 0.86 µM and 6.49 µM.
